Results on 4 compounds are retold here after ChEMBL document CHEMBL1201862, “PubChem BioAssay data set” (2004).

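Each compound was tested at five concentrations against cells in 96-well plates for 48 hours. GI50 marks 50% less growth.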 Calls of active or inactive are those of the source. Rule as the data show it: active = GI50 up to about 1.1 µM and inactive = higher.

Test systems include SF-295; MDA-MB-435; SF-539; Malme-3M; SNB-19; SK-MEL-2; NCI-H23; SW-620; DU-145; HCT-116; HL-60; LOX IMVI; HOP-92; SNB-75; RPMI-8226; ACHN; 786-0; MOLT-4; SK-MEL-28; CAKI-1.
Common to all, as to test: DTP human tumour cell line panel, 48 h

As usually defined, the GI50 is the concentration at which growth is held to half of that of the control. With `Cn1c(=O)[nH]c2[nH]c3ccccc3c2c1=O`, the GI50 in the experiment on SF-295, in the experiment with MDA-MB-435, in the experiment on SF-539, in the experiment on Malme-3M, in the experiment with SNB-19 and in the experiment on SK-MEL-2 was > 100 µM (inactive) in each case. The GI50 in the experiment on NCI-H23, in the experiment on SW-620, in the experiment with DU-145, in the experiment with HCT-116, in the experiment with HL-60 and with LOX IMVI was > 100 µM (inactive) throughout. Besides, the GI50 with HOP-92 is > 100 µM (inactive); in the experiment with SNB-75 it was 32.1 µM (inactive); with RPMI-8226, 92 µM (inactive); in the experiment on ACHN, > 100 µM (inactive); in the experiment with 786-0, > 100 µM (inactive); in the experiment with MOLT-4, > 100 µM (inactive). The GI50 in the experiment with SK-MEL-28 and in the experiment with CAKI-1 was > 100 µM (inactive) in each case.
Turning to `Cc1ccc(/C=C2\CCCC(CN3CCCCC3)C2=O)cc1` (stereo not given), the GI50 in the experiment on SF-295 is 17.2 µM (inactive); with MDA-MB-435, 1.82 µM (inactive); in the experiment with SF-539, 4.42 µM (inactive); in the experiment on Malme-3M, 2.51 µM (inactive); in the experiment on SNB-19 it was 15.2 µM (inactive); with SK-MEL-2, 2.89 µM (inactive). Further, the GI50 with NCI-H23 was 2.17 µM (inactive); in the experiment with SW-620, 1.75 µM (inactive); in the experiment with DU-145, 11.7 µM (inactive); with HCT-116 it was 1.76 µM (inactive); with HL-60, 0.555 µM (active); in the experiment with LOX IMVI, 1.84 µM (inactive). Moreover, the GI50 was 1.81 µM (inactive) in the experiment on HOP-92; 4.66 µM (inactive) in the experiment on SNB-75; > 100 µM (inactive) in the experiment on RPMI-8226; 3.98 µM (inactive) in the experiment on ACHN; 2.02 µM (inactive) with 786-0; 4 µM (inactive) in the experiment with MOLT-4. Also, the GI50 was 1.63 µM (inactive) in the experiment with SK-MEL-28 and 1.79 µM (inactive) in the experiment on CAKI-1.
Take `CCN(CC)c1c(C(C)(C)C)c(=O)n2ccsc2c1OC(C)=O`: the GI50 in the experiment on SF-295 is 17.1 µM (inactive); in the experiment on MDA-MB-435, 18 µM (inactive); in the experiment with SF-539 it was 19.1 µM (inactive); in the experiment on Malme-3M, 12.5 µM (inactive); in the experiment with SNB-19, 16.6 µM (inactive); in the experiment on SK-MEL-2, 17.1 µM (inactive). Moreover, the GI50 was 16.1 µM (inactive) in the experiment with NCI-H23; 16.9 µM (inactive) in the experiment on SW-620; 19.9 µM (inactive) in the experiment with DU-145; 13.6 µM (inactive) in the experiment on HCT-116; 29.4 µM (inactive) in the experiment on HL-60; 17.4 µM (inactive) with LOX IMVI. Besides, the GI50 is 17.4 µM (inactive) in the experiment on HOP-92; 15 µM (inactive) with SNB-75; 13.8 µM (inactive) in the experiment on RPMI-8226; 16.2 µM (inactive) with ACHN; 19.9 µM (inactive) with 786-0; 17.8 µM (inactive) with MOLT-4. The results for the GI50 in the experiment with SK-MEL-28 and in the experiment on CAKI-1 were 17.1 µM (inactive) and 18.6 µM (inactive), respectively.
In the case of `Cc1nn(C(=O)c2ccc(Cl)cc2)c2c1C(c1cccc([N+](=O)[O-])c1)SC(=N)N2` (stereo not given), the GI50 in the experiment on SF-295, with MDA-MB-435, in the experiment with SF-539, with Malme-3M, with SNB-19 and in the experiment on SK-MEL-2 was > 10 µM (inactive) in each case. In addition, the GI50 with NCI-H23, with SW-620, in the experiment with DU-145, in the experiment on HCT-116, with HL-60 and with LOX IMVI was > 10 µM (inactive) each time. Besides, the GI50 in the experiment with HOP-92, in the experiment on SNB-75, in the experiment with RPMI-8226, with ACHN, with 786-0 and in the experiment with MOLT-4 was > 10 µM (inactive) in each case. Besides, the GI50 in the experiment with SK-MEL-28 and with CAKI-1 was > 10 µM (inactive) in each case.
